Assay results reported in patent publication US10004762B2, “Dialysis formulation” (Gambro Lundia AB, priority 2013, dated 2018).
Read-outs that look alike come from different tables or passages of the source.

What was measured:
[1] = Loss of trace elements during 24 h CRRT treatment (FIG. 5A-5B); conditions: patients with CRRT (acute dialysis treatment)
[2] = Trace element concentrations in effluent of hemodialysis patients (ICP-MS); conditions: effluent from HD patients at the end of dialysis session
Protocol: (§1) Trace element concentrations have been analyzed in effluent obtained from hemodialysis (HD) patients at the end of their dialysis session.
(§2) In the study participated 47 hemodialysis patients. […] All patients received dialysis 3-5 h, 3-4 times per week. Whole blood and plasma samples for trace element analysis were obtained pre- and post-midweek dialysis treatment in 6 ml trace element-free EDTA tubes (BD Vaccutainer®, Stockholm, Sweden). In addition effluent samples were taken post-treatment in 50 ml trace element-free tubes.
(§3) Analysis of all trace elements was performed by inductively coupled plasma-mass spectrometry (ICP-MS; Thermo X7, Thermo Elemental, Winsford, UK). For plasma and blood a sample volume of 250 μL was diluted 10 times with an alkaline solution according to Bárány et al. The effluent was analysed in acidic condition, i.e. concentrated nitric acid (HNO3) was added to the samples to a final concentration of 2%. Using the dilute solution or 2% HNO3 as a carrier/rinsing fluid, the samples were introduced in a segment-flow mode.

[3] = Trace element analysis in plasma and whole blood of HD patients and healthy controls (ICP-MS); conditions: for P2 plasma sample post-dialysis ± SEM / P1 plasma sample pre-dialysis ± SEM / B2 whole blood sample post-dialysis ± SEM / B1 whole blood sample pre-dialysis ± SEM: all HD patients; for P control ± SEM / B control ± SEM: healthy controls; for B2 whole blood sample post-dialysis ± SEM / B1 whole blood sample pre-dialysis ± SEM / B control ± SEM: whole blood; for increase of concentration during dialysis: plasma and whole blood, HD patients (FIG. 2)
Protocol: (§4) In the study participated 47 hemodialysis patients. These 47 hemodialysis patients (34 female and 13 male), were divided into 30 non-diabetic and 17 with diabetes mellitus, with an average age of 67 (Table 1). All patients received dialysis 3-5 h, 3-4 times per week. Whole blood and plasma samples for trace element analysis were obtained pre- and post-midweek dialysis treatment in 6 ml trace element-free EDTA tubes (BD Vaccutainer®, Stockholm, Sweden). […] In addition, the same samples were taken at one occasion from a healthy control group. The control group included 51 persons (20 female and 31 male), with an average age of 22.
as §3

[4] = human, in vivo
Protocol: as §1, §2, §3

[5] = human, in vivo; remark: listed apart in the source
Protocol: as §4, §3

[6] = in vivo
[7] = in vivo; remark: listed apart in the source
[8] = Loss of trace elements during hemodialysis (HD) treatment (FIG. 5C-5E); conditions: HD patients (chronic dialysis treatment), 4 hours of HD

Compound: [Cr] [Chromium]
- actual loss during 24 hours of CRRT [1]: significant loss
- Effluent concentration ± SD [2]: 0.0043 ± 0.008 µM
- P2 plasma sample post-dialysis ± SEM ([3]; plasma): 5.2 ± 0.6 µg/L
- P1 plasma sample pre-dialysis ± SEM ([3]; plasma): 3.3 ± 0.3 µg/L
- P1 plasma sample pre-dialysis ± SEM ([3]; plasma, listed as Cr): 3.3 ± 0.3 µg/L
- B2 whole blood sample post-dialysis ± SEM [3]: 3.4 ± 0.4 µg/L
- B1 whole blood sample pre-dialysis ± SEM [3]: 2.1 ± 0.2 µg/L
- plasma concentration post-dialysis ([3]; diabetic HD patients): 2.5 ± 0.4 ng/mL
- P control ± SEM ([3]; plasma): 0.3 ± 0.02 µg/L
- P control ± SEM ([3]; plasma, listed as Cr): 0.3 ± 0.02 µg/L
- B control ± SEM [3]: 0.3 ± 0.02 µg/L
- plasma concentration post-dialysis ([3]; non-diabetic HD patients): 3.8 ± 0.4 ng/mL
- increase of concentration during dialysis [3]: up to 60%

Compound: [Cu] [Copper]
- Effluent concentration ± SD [4]: 0.026 ± 0.015 µM
- B1 whole blood sample pre-dialysis ± SEM [5]: 855 ± 18 µg/L
- B2 whole blood sample post-dialysis ± SEM [5]: 882 ± 17 µg/L
- B control ± SEM [5]: 861 ± 27 µg/L
- P1 plasma sample pre-dialysis ± SEM [5]: 1113 ± 33 µg/L
- P2 plasma sample post-dialysis ± SEM [5]: 1178 ± 29 µg/L
- increase of concentration during dialysis [5]: ~4%
- plasma concentration [5]: 1173 ± 56 ng/mL
- actual loss during 24 hours of CRRT [6]: significant loss
- actual loss / removal during HD treatment [7]: removal of those trace elements in a majority of the patients

Compound: [Mn+2] [Manganese]
- actual loss during 24 hours of CRRT [1]: significant loss
- actual loss / removal during HD treatment [8]: no manganese removal at all but rather an uptake
- Effluent concentration ± SD [2]: 0.005 ± 0.005 µM
- P2 plasma sample post-dialysis ± SEM ([3]; plasma): 3.4 ± 0.9 µg/L
- P1 plasma sample pre-dialysis ± SEM ([3]; plasma): 0.8 ± 0.03 µg/L
- B2 whole blood sample post-dialysis ± SEM [3]: 19.3 ± 1.4 µg/L
- B1 whole blood sample pre-dialysis ± SEM [3]: 17 ± 1.3 µg/L
- B1 whole blood sample pre-dialysis ± SEM ([3]; listed as Mn): 17.0 ± 1.1 µg/L
- blood concentration post-dialysis ([3]; diabetic HD patients): 20 ± 2.7 ng/mL
- blood concentration pre-dialysis ([3]; diabetic HD patients): 17 ± 2.1 ng/mL
- P control ± SEM ([3]; plasma): 0.7 ± 0.02 µg/L
- B control ± SEM [3]: 9.2 ± 0.4 µg/L
- B control ± SEM ([3]; listed as Mn): 9.2 ± 0.4 µg/L
- blood concentration post-dialysis ([3]; non-diabetic HD patients): 19 ± 1.4 ng/mL
- blood concentration pre-dialysis ([3]; non-diabetic HD patients): 17 ± 1.3 ng/mL

Compound: [Mo] [Molybdenum]
- Effluent concentration ± SD [4]: 0.003 ± 0.002 µM
- B1 whole blood sample pre-dialysis ± SEM [5]: 2.0 ± 0.2 µg/L
- B2 whole blood sample post-dialysis ± SEM [5]: 1.0 ± 0.1 µg/L
- B control ± SEM [5]: 0.6 ± 0.1 µg/L
- P1 plasma sample pre-dialysis ± SEM [5]: 2.6 ± 0.2 µg/L
- P2 plasma sample post-dialysis ± SEM [5]: 1.3 ± 0.1 µg/L
- P control ± SEM [5]: 0.8 ± 0.1 µg/L
- decrease of concentration during dialysis [5]: ~50%
- plasma concentration post-dialysis [5]: 1.2 ± 0.2 ng/mL
- plasma concentration pre-dialysis [5]: 3.1 ± 0.4 ng/mL
- reduction of plasma concentration during dialysis [5]: 50%
- actual loss during 24 hours of CRRT [6]: significant loss

Compound: [Rb] [Rubidium]
- Effluent concentration ± SD [4]: 0.31 ± 0.17 µM
- B1 whole blood sample pre-dialysis ± SEM [5]: 972 ± 30 µg/L
- B2 whole blood sample post-dialysis ± SEM [5]: 974 ± 30 µg/L
- B control ± SEM [5]: 1966 ± 51 µg/L
- P1 plasma sample pre-dialysis ± SEM [5]: 187 ± 5 µg/L
- P2 plasma sample post-dialysis ± SEM [5]: 150 ± 4 µg/L
- P control ± SEM [5]: 271 ± 5 µg/L
- decrease of plasma concentration during dialysis [5]: ~20%
- actual loss during 24 hours of CRRT [6]: large loss
- actual loss / removal during HD treatment [7]: significant removal of rubidium in a majority of the patients

Compound: [Se] [Selenium]
- Effluent concentration ± SD ([4]; both): 0.01 ± 0.005 µM
- B1 whole blood sample pre-dialysis ± SEM ([5]; both): 66 ± 2 µg/L
- B2 whole blood sample post-dialysis ± SEM ([5]; both): 68 ± 2 µg/L
- B control ± SEM ([5]; both): 102 ± 3 µg/L
- P1 plasma sample pre-dialysis ± SEM ([5]; both): 53 ± 2 µg/L
- P2 plasma sample post-dialysis ± SEM ([5]; both): 55 ± 2 µg/L
- P control ± SEM ([5]; both): 81 ± 1.9 µg/L
- actual loss during 24 hours of CRRT [6]: significant loss
- actual loss / removal during HD treatment [7]: significant removal of selenium in most patients

Compound: Cobalt
- actual loss during 24 hours of CRRT [1]: significant loss
- Effluent concentration ± SD [2]: 0.0015 ± 0.002 µM
- P2 plasma sample post-dialysis ± SEM ([3]; plasma): 0.6 ± 0.1 µg/L
- P1 plasma sample pre-dialysis ± SEM ([3]; plasma): 0.6 ± 0.03 µg/L
- P1 plasma sample pre-dialysis ± SEM ([3]; plasma, listed as Co): 0.6 ± 0.03 µg/L
- B2 whole blood sample post-dialysis ± SEM [3]: 0.5 ± 0.03 µg/L
- B1 whole blood sample pre-dialysis ± SEM [3]: 0.5 ± 0.02 µg/L
- P control ± SEM ([3]; plasma): 0.4 ± 0.02 µg/L
- P control ± SEM ([3]; plasma, listed as Co): 0.4 ± 0.02 µg/L
- B control ± SEM [3]: 0.3 ± 0.01 µg/L
- increase in plasma concentration during dialysis ([3]; plasma, diabetic and non-diabetic HD patients): ~15%

Compound: Zinc
- actual loss during 24 hours of CRRT [1]: some subjects show a uptake of zinc (negative loss) while others show loss of zinc
- actual loss / removal during HD treatment [8]: removal of those trace elements in a majority of the patients
- Effluent concentration ± SD [2]: 0.017 ± 0.01 µM
- P2 plasma sample post-dialysis ± SEM ([3]; plasma): 685 ± 17 µg/L
- P1 plasma sample pre-dialysis ± SEM ([3]; plasma): 644 ± 13 µg/L
- B2 whole blood sample post-dialysis ± SEM [3]: 5842 ± 131 µg/L
- B1 whole blood sample pre-dialysis ± SEM [3]: 5610 ± 138 µg/L
- B1 whole blood sample pre-dialysis ± SEM ([3]; listed as Zn): 5610 ± 138 µg/L
- P control ± SEM ([3]; plasma): 719 ± 17 µg/L
- B control ± SEM [3]: 5189 ± 124 µg/L
- B control ± SEM ([3]; listed as Zn): 5189 ± 124 µg/L
- increase of concentration during dialysis [3]: ~5%
